# Source: patent publication US20070197522A1, “Dpp-iv inhibitors” (priority 2004, published 2007)
# Where a name gives a salt, the structure may show the parent alone.
# Molecular target: T1, DPP-IV (Homo sapiens, UniProt P27487)
# T1 construct: Soluble human DPP-IV lacking the transmembrane anchor (Gly31-Pro766) was expressed in a recombinant YEAST-strain; Pre-Pro-alpha-mating factor leader (secretion fusion) (N, cleaved yes); made in house
# Experiment: Inhibition of DPP-IV peptidase activity, continuous fluorimetric assay (Gly-Pro-AMC cleavage)
# Format: biochemical, human and porcine
# Settings: inhibition of DPP-IV peptidase activity; 50 pM DPP-IV, 16 μM Gly-Pro-AMC, pH 7.4, 25° C.; values grouped in 3 classes; read-out: IC50
# Protocol: Inhibition of DPP-IV peptidase activity was monitored with a continuous fluorimetric assay. This assay is based on the cleavage of the substrate Gly-Pro-AMC (Bachem) by DPP-IV, releasing free AMC. The assay is carried out in 96-well microtiterplates. In a total volume of 100 μL, compounds are preincubated with 50 pM DPP-IV employing a buffer containing 10 mM Hepes, 150 mM NaCl, 0.005% Tween 20 (pH 7.4). […] The final concentration of DMSO is 1%. The inhibitory potential of the compounds were determined.
# Soluble human DPP-IV lacking the transmembrane anchor (Gly31-Pro766) was expressed in a recombinant YEAST-strain as Pre-Pro-alpha-mating fusion. The secreted product (rhuDPP-IV-Gly31-Pro766) was purified from fermentation broth (>90% purity).
# T1 sequence (P27487 31-766): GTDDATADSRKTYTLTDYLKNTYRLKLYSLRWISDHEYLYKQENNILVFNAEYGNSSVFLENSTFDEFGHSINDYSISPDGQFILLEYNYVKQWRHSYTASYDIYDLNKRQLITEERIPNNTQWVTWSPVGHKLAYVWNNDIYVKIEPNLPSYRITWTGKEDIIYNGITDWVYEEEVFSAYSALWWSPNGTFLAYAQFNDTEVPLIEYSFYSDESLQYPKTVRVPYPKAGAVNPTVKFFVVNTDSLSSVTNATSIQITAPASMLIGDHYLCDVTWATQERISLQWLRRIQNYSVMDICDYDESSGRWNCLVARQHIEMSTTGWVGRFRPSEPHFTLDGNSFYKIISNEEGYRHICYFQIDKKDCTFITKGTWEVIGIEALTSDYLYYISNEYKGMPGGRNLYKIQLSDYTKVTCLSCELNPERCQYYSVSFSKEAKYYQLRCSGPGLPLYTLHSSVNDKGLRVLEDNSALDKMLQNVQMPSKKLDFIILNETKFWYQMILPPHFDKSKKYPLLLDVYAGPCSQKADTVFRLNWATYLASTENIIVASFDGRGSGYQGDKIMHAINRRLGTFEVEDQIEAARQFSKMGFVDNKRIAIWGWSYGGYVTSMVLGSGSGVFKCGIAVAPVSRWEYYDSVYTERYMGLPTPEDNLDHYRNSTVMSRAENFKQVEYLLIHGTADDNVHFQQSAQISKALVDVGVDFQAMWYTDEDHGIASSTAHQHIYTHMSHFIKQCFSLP
row,IC50 [nM],Compound
1,101 to 1000,"N[C@@H](CC(=O)NCC1OCCc2ccccc21)Cc1ccccc1F (single isomer, unassigned) [Example 67]"
2,101 to 1000,"N[C@@H](CC(=O)NC(Cc1ccccc1)c1ccccc1)Cc1ccccc1F (single isomer, unassigned) [Example 74]"
3,101 to 1000,"N[C@@H](CC(=O)NCC1CCCc2ccccc21)Cc1ccccc1F (single isomer, unassigned) [Example 78]"
4,101 to 1000,"CN(C)C(CNC(=O)C[C@H](N)Cc1ccccc1F)c1ccccc1Cl (single isomer, unassigned) [Example 84]"
5,101 to 1000,"CN(C)C(CNC(=O)C[C@H](N)Cc1ccccc1F)c1ccccc1 (single isomer, unassigned) [Example 85]"
6,101 to 1000,"N[C@@H](CC(=O)NC(CN1CCOCC1)c1ccccc1)Cc1ccccc1F (single isomer, unassigned) [Example 86]"
7,< 100,"N[C@@H](CC(=O)NC(CN1CCCC1)c1ccccc1)Cc1ccccc1F (single isomer, unassigned) [Example 87]"
8,< 100,"N[C@@H](CC(=O)NC(CN1CCCC1)c1ccccc1Cl)Cc1ccccc1F (single isomer, unassigned) [Example 90]"
9,101 to 1000,"N[C@@H](CC(=O)NC(CN1CCCC1)c1ccccc1)Cc1ccccc1F (single isomer, unassigned) [Example 91]"
10,101 to 1000,"CC(CNC(=O)C[C@H](N)Cc1ccccc1F)c1ccc(Cl)cc1 (single isomer, unassigned) [Example 107]"
11,101 to 1000,"N[C@@H](CC(=O)NC(CN1CCCCC1)c1ccccc1)Cc1ccccc1F (single isomer, unassigned) [Example 109]"
12,101 to 1000,"N[C@@H](CC(=O)NCC(c1ccccc1)N1CCCC1)Cc1ccccc1F (single isomer, unassigned) [Example 131]"
13,101 to 1000,"N[C@@H](CC(=O)NCC(c1ccccc1Cl)N1CCCC1)Cc1ccccc1F (single isomer, unassigned) [Example 132]"
14,< 100,"NC(CC(=O)NCC(c1ccccc1Cl)N1CCCC1)Cc1ccccc1F (single isomer, unassigned) [Example 134]"
15,< 100,"NC(CC(=O)NC(CN1CCCC1)c1ccccc1)Cc1ccccc1F (single isomer, unassigned) [Example 135]"
16,101 to 1000,"C[S+]([O-])c1ccccc1CNC(=O)C[C@H](N)Cc1ccccc1F (single isomer, unassigned) [Example 137]"
17,< 100,"CC(C)[C@H](NC(=O)C[C@H](N)Cc1cc(F)c(F)cc1F)c1nc(C2CC2)no1 [Example 29, (R)-3-Amino-N—[(S)-1-(3-cyclopropyl-[1,2,4]oxadiazol-5-yl)-2-methyl-propyl]-4-(2,4,5-trifluoro-phenyl)-butyramide. Formic Acid Salt]"
18,101 to 1000,"NC(=O)c1cccc(CNC(=O)C[C@H](N)Cc2ccccc2F)c1 [Example 30, 3-{[(3R)-3-Amino-4-(2-fluoro-phenyl)-butyrylamino]-methyl}-benzamide Trifluoroacetate Salt]"
19,101 to 1000,"NC(=O)c1ccc(CNC(=O)C[C@H](N)Cc2ccccc2F)cc1 [Example 31, 4-{[(3R)-3-Amino-4-(2-fluoro-phenyl)-butyrylamino]-methyl}-benzamide.trifluoroacetate Salt]"
20,101 to 1000,"N[C@@H](CC(=O)NCc1cccc(C(=O)NC2CC2)c1)Cc1ccccc1F [Example 32, 3-{[(3R)-3-Amino-4-(2-fluoro-phenyl)-butyrylamino]-methyl}-N-cyclopropyl-benzamide. Trifluoroacetate Salt]"
21,101 to 1000,N[C@@H](CC(=O)NCc1cccc(C(=O)NCc2ccccc2F)c1)Cc1ccccc1F [Example 33]
22,101 to 1000,N[C@@H](CC(=O)NCc1cccc(C(=O)Nc2ccccn2)c1)Cc1ccccc1F [Example 34]
23,101 to 1000,N[C@@H](CC(=O)NCc1cccc(C(=O)NCc2ccc(S(N)(=O)=O)cc2)c1)Cc1ccccc1F [Example 35]
24,101 to 1000,"CN(Cc1ccccc1F)C(=O)C[C@H](N)Cc1ccccc1F [Example 36, (3R)-Amino-N-(2-fluoro-benzyl)-4-(2-fluoro-phenyl)-N-methyl-butyramide Hydrochloride]"
25,101 to 1000,"Cc1ccccc1CN(C)C(=O)C[C@H](N)Cc1ccccc1F [Example 37, 3-Amino-4-(2-fluoro-phenyl)-N-methyl-N-(2-methyl-benzyl)-butyramide Hydrochloride]"
26,101 to 1000,"CSc1ccccc1CN(C)C(=O)C[C@H](N)Cc1ccccc1F [Example 38, 3-Amino-4-(2-fluoro-phenyl)-N-methyl-N-(2-methylsulfanyl-benzyl)-butyramide Hydrochloride]"

row,IC50 [nM],Compound
1,101 to 1000,CN(C)CCNC(=O)C[C@H](N)Cc1ccccc1F [Example 39]
2,101 to 1000,N[C@@H](CC(=O)NCCc1ccccn1)Cc1ccccc1F [Example 40]
3,1000 to 2000,N[C@@H](CC(=O)NCc1ccccc1)Cc1ccccc1F [Example 41]
4,1000 to 2000,NC(CC(=O)NC1c2ccccc2CC1O)Cc1ccccc1F (stereo not shown) [Example 43]
5,101 to 1000,N[C@@H](CC(=O)NCc1ccc(Cl)cc1Cl)Cc1ccccc1F [Example 44]
6,101 to 1000,NC(CC(=O)NC1CCCc2ccccc21)Cc1ccccc1F (stereo not shown) [Example 45]
7,101 to 1000,N[C@@H](CC(=O)NCc1cc(F)cc(F)c1)Cc1ccccc1F [Example 46]
8,101 to 1000,N[C@@H](CC(=O)NC(c1ccccc1)c1ccccc1)Cc1ccccc1F [Example 47]
9,101 to 1000,N[C@@H](CC(=O)NCc1ccncc1)Cc1ccccc1F [Example 48]
10,101 to 1000,Cc1ccccc1CNC(=O)C[C@H](N)Cc1ccccc1F [Example 49]
11,101 to 1000,N[C@@H](CC(=O)NCCc1ccccc1)Cc1ccccc1F [Example 50]
12,101 to 1000,N[C@@H](CC(=O)NCc1cc(Cl)ccc1Cl)Cc1ccccc1F [Example 51]
13,101 to 1000,N[C@@H](CC(=O)NCc1ccccn1)Cc1ccccc1F [Example 52]
14,101 to 1000,N[C@@H](CC(=O)NCc1ccc(Cl)cc1)Cc1ccccc1F [Example 54]
15,101 to 1000,N[C@@H](CC(=O)NC1Cc2ccccc2C1)Cc1ccccc1F [Example 55]
16,101 to 1000,N[C@@H](CC(=O)NCc1ccc2c(c1)CCO2)Cc1ccccc1F [Example 56]
17,101 to 1000,COc1ccc(-c2cc(CNC(=O)C[C@H](N)Cc3ccccc3F)on2)cc1 [Example 57]
18,101 to 1000,N[C@@H](CC(=O)NCc1cccnc1)Cc1ccccc1F [Example 58]
19,101 to 1000,N[C@@H](CC(=O)NCc1ccc2c(c1)OCCO2)Cc1ccccc1F [Example 61]
20,101 to 1000,Cc1cc(CNC(=O)C[C@H](N)Cc2ccccc2F)no1 [Example 62]
21,< 100,N[C@@H](CC(=O)NCc1ccc(-n2cccn2)cc1)Cc1ccccc1F [Example 63]
22,1000 to 2000,N[C@@H](CC(=O)NCc1cccc(-c2ccccc2)c1)Cc1ccccc1F [Example 64]
23,101 to 1000,N[C@@H](CC(=O)NCc1cc(F)c(F)c(F)c1)Cc1ccccc1F [Example 65]
24,101 to 1000,N[C@@H](CC(=O)NCc1ccc(C(F)(F)F)cc1)Cc1ccccc1F [Example 68]
25,1000 to 2000,N[C@@H](CC(=O)NCc1ccccc1C(F)(F)F)Cc1ccccc1F [Example 69]
26,101 to 1000,N[C@@H](CC(=O)NCc1cccc(Cl)c1)Cc1ccccc1F [Example 70]
